Test results published in patent publication US20240376124A1, “Macrocyclic Kinase Inhibitors” (Incyte Corporation, priority 2023, published 2024).

Experiments:
[1] = molecular target: T1, catalytic domain (JH1, amino acids 808-1132) of human JAK2 (Homo sapiens, UniProt O60674); assay: JAK2 HTRF Enzyme Activity Assay; assay type: biochemical; settings: ATP 30 μM; read-out: ENZ 30UMATP IC50
T1 construct: catalytic domain (JH1, amino acids 808-1132) of human JAK2; His (N); purchased BPS Bioscience 40450; host or cells: baculovirus expression system
T1 sequence (O60674 808-1132): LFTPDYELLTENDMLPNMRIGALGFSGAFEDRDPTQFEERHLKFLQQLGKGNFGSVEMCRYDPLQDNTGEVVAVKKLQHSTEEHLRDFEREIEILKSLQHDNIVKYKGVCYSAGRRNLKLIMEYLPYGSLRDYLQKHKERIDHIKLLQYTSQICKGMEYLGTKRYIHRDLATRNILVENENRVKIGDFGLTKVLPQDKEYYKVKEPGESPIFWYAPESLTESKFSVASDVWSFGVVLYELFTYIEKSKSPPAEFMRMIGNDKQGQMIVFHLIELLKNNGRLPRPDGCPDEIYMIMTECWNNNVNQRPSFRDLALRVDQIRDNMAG
Protocol: Example D. JAK2 HTRF Enzyme Activity Assay
JAK2 enzyme activity assays utilize catalytic domain (JH1, amino acids 808-1132) of human JAK2 expressed as N-terminal His-tagged protein in a baculovirus expression system (BPS Bioscience, Catalog #40450). The assays was conducted in black 384-well polystyrene plates in a final reaction volume of 20 μL. JAK2 (0.015 nM) was incubated with compounds (100 nL serially diluted in DMSO) in the presence of ATP (30 μM or 1 mM) and 500 nM Biotin-labeled EQEDEPEGDYFEWLE (SEQ ID NO.: 1) peptide (BioSource International, custom synthesis) in assay buffer (50 mM Tris, pH=7.5, 10 mM MgCl2, 0.01% Brij-35, 0.1% BSA, 1 mM EGTA, 5% Glycerol and 5 mM DTT) for 60 minutes at 25° C. The reactions were stopped by the addition of 10 μL of detection buffer (50 mM Tris, pH 7.8, 0.5 mg/mL BSA, 150 mM NaCl), supplemented with EDTA, LANCE Eu-W1024 anti-phosphotyrosine (PY20), (PerkinElmer, Catalog #AD0067) and Streptavidin SureLight APC (PerkinElmer Catalog #CR130-100), for a final concentration of 15 mM, 1.5 nM and 75 nM, respectively. HTRF signals were read after 30 minutes incubation at room temperature on a PHERAstar FS plate reader (BMG LABTECH). Data was analyzed with IDBS XLfit and GraphPad Prism 5.0 software using a four parameter dose response curve to determine IC50 for each compound. The compounds of the disclosure were tested in one or more of the assays described in Examples A-D, and the resulting data are shown in Table A.

[2] = molecular target: T2, pseudo-kinase domain (JH2, amino-acids 536-812) of human Wild Type JAK2 (Homo sapiens, UniProt O60674, F794H/W659A/W777A); assay: JAK2 LanthaScreen JH2-WT Binding Assay; settings: 50 nM tracer, read-out: JH2BIND_WT IC50
T2 construct: pseudo-kinase domain (JH2, amino-acids 536-812 with 3 surface mutations W659A, W777A, F794H); His (C); purchased BPS Bioscience 79463; host or cells: baculovirus expression system
T2 sequence (O60674 536-812 W659A/W777A/F794H): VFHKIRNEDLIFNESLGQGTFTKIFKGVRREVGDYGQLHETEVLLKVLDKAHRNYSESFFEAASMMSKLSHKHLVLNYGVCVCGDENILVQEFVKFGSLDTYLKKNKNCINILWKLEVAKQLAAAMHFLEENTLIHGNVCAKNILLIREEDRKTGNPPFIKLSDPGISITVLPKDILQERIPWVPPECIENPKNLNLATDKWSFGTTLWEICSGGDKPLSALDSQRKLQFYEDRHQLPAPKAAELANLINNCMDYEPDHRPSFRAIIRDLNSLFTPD
Protocol: Example B. JAK2 LanthaScreen JH2-WT Binding Assay
(§1) JAK2 JH2-WT binding assay utilizes pseudo-kinase domain (JH2, amino-acids 536-812 with 3 surface mutations W659A, W777A, F794H) of human Wild Type JAK2 expressed as C-terminal His-Avi-tagged, biotinylated protein in a baculovirus expression system (BPS Bioscience, Catalog #79463). The assay was conducted in black 384-well polystyrene plates in a final reaction volume of 20 μL. JAK2 JH2-WT (0.145 nM) was incubated with compounds (100 nL serially diluted in DMSO) in the presence of 50 nM Fluorescent JAK2-JH2 Tracer (MedChem Express Catalog #HY-102055) and 0.25 nM Streptavidin-Tb cryptate (Cisbio Part #610SATLB) in assay buffer (50 mM Tris, pH=7.5, 10 mM MgCl2, 0.01% Brij-35, 0.1% BSA, 1 mM EGTA, 5% Glycerol and 5 mM DTT). Non-specific binding was accessed in the presence of 2 mM ATP. After incubation for 1 hour at 25° C., LanthaScreen signals were read on a PHERAstar FS plate reader (BMG LABTECH). Data was analyzed with IDBS XLfit and GraphPad Prism 5.0 software using a four parameter dose response curve to determine IC50 for each compound.

[3] = molecular target: T3, pseudo-kinase domain (JH2, amino-acids 536-812) of human V617F mutant JAK2 (Homo sapiens, UniProt O60674, F794H/V617F/W659A/W777A); assay: JAK2 LanthaScreen JH2-V617F Binding Assay; settings: 50 nM tracer, read-out: JH2BINDING—V617F IC50
T3 construct: pseudo-kinase domain (JH2, amino-acids 536-812 with 3 surface mutations W659A, W777A, F794H); His (C); purchased BPS Bioscience 79498; host or cells: baculovirus expression system
T3 sequence (O60674 536-812 V617F/W659A/W777A/F794H): as the sequence (O60674 536-812 W659A/W777A/F794H) above, with V82F counted along it
Protocol: Example C. JAK2 LanthaScreen JH2-V617F Binding Assay
as §1, with “JH2-V617F” for “JH2-WT”, “V617F mutant” for “Wild Type”, “#79498).” for “#79463).”, “JH2-V617F (0.26” for “JH2-WT (0.145”

[4] = molecular target: T4, catalytic domain (JH1, amino acids 826-1132) of human JAK2 (Homo sapiens, UniProt O60674); assay: JAK2 LanthaScreen JH1 binding assay; settings: JAK2 JH1, 50 nM tracer; read-out: JH1BIND IC50
T4 construct: catalytic domain (JH1, amino acids 826-1132) of human JAK2; FLAG (N); purchased Carna Biosciences 08-445-20N; host or cells: baculovirus expression system
T4 sequence (O60674 826-1132): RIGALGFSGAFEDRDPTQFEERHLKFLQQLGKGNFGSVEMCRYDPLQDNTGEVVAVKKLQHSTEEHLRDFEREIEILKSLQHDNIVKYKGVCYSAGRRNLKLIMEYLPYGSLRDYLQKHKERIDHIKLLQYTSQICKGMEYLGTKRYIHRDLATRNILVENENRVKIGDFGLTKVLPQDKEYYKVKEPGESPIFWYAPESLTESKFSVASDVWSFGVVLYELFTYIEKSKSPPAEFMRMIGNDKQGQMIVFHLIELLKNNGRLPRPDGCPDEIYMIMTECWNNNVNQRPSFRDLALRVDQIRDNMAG
Protocol: Example A. JAK2 LanthaScreen […] Binding Assay
JAK2 JH1 binding assay utilizes catalytic domain (JH1, amino acids 826-1132) of human JAK2 expressed as N-terminal FLAG-tagged, biotinylated protein in a baculovirus expression system (Carna Biosciences, Product #08-445-20N). The assay was conducted in black 384-well polystyrene plates in a final reaction volume of 20 μL. JAK2 JH1 (1.5 nM) was incubated with compounds (100 nL serially diluted in DMSO) in the presence of 50 nM fluorescent JAK2-JH1 tracer and 0.5 nM Streptavidin-Tb cryptate (Cisbio Part #610SATLB) in assay buffer (50 mM Tris, pH=7.5, 10 mM MgCl2, 0.01% Brij-35, 0.1% BSA, 1 mM EGTA, […] and 5 mM DTT). Non-specific binding was accessed in the presence of 2 mM ATP. After incubation for 2 hours at 25° C., LanthaScreen signals were read on a PHERAstar FS plate reader (BMG LABTECH).
Data was analyzed with IDBS XLfit and GraphPad Prism 5.0 software using a four parameter dose response curve to determine IC50 for each compound.

| SMILES | IC50 [1] [nM] | IC50 [2] [nM] | IC50 [3] [nM] | IC50 [4] [nM] |
| --- | --- | --- | --- | --- |
| [2H]C([2H])([2H])n1c(=O)n2c3c4c(c(-c5cn(C)nc5OC)[nH]c4ncc31)-c1ccc(cc1)OC/C=C/C[C@]1(NC(=O)C3CC3)CC[C@@H]2CC1 [Example 1, N-((3^1s,3^4s,E)-2^7-(3-Methoxy-1-methyl-1H-pyrazol-4-yl)-2^3-(methyl-d3)-2^2-oxo-2^1,2^2,2^3,2^6-tetrahydro-8-oxa-2(8,1)-imidazo[4,5-d]pyrrolo[2,3-b]pyridina-1(1,4)-benzena-3(1,4)-cyclohexanacyclooctaphan-5-en-3^4-yl)cyclopropanecarboxamide] | > 1000 | ≤ 10 | ≤ 10 | > 1000 |
| [2H]C([2H])([2H])n1c(=O)n2c3c4c(c(-c5cn(C)nc5OC)[nH]c4ncc31)-c1ccc(cc1)OCC/C=C/C[C@]1(NC(=O)C3CC3)CC[C@@H]2CC1 [Example 2, N-((3^1s,3^4s,E)-2^7-(3-Methoxy-1-methyl-1H-pyrazol-4-yl)-2^3-(methyl-d3)-2^2-oxo-2^1,2^2,2^3,2^6-tetrahydro-9-oxa-2(8,1)-imidazo[4,5-d]pyrrolo[2,3-b]pyridina-1(1,4)-benzena-3(1,4)-cyclohexanacyclononaphan-5-en-3^4-yl)cyclopropanecarboxamide] | > 1000 | ≤ 10 | ≤ 10 | > 1000 |
| [2H]C([2H])([2H])n1c(=O)n2c3c4c(c(-c5cn(C)nc5OC)[nH]c4ncc31)-c1ccc(cc1)OCCC/C=C/C[C@]1(NC(=O)C3CC3)CC[C@@H]2CC1 [Example 3, N-((3^1s,3^4s,E)-2^7-(3-Methoxy-1-methyl-1H-pyrazol-4-yl)-2^3-(methyl-d3)-2^2-oxo-2^1,2^2,2^3,2^6-tetrahydro-10-oxa-2(8,1)-imidazo[4,5-d]pyrrolo[2,3-b]pyridina-1(1,4)-benzena-3(1,4)-cyclohexanacyclodecaphan-5-en-3^4-yl)cyclopropanecarboxamide] | > 1000 | ≤ 10 | ≤ 10 | > 1000 |
| [2H]C([2H])([2H])n1c(=O)n2c3c4c(c(-c5cn(C)nc5OC)[nH]c4ncc31)-c1ccc(cc1)C1(/C=C/C[C@]3(NC(=O)C4CC4)CC[C@@H]2CC3)CC1 [Example 6, N-((1′s,4′s,E)-7′-(3-Methoxy-1-methyl-1H-pyrazol-4-yl)-3′-(methyl-d3)-2′-oxospiro[cyclopropane-1,7′-2(8,1)-imidazo[4,5-d]pyrrolo[2,3-b]pyridina-1(1,4)-benzena-3(1,4)-cyclohexanacycloheptaphanen]-5′-en-4′-yl)cyclopropanecarboxamide] | > 1000 | ≤ 10 | ≤ 10 | > 1000 |
| [2H]C([2H])([2H])n1c(=O)n2c3c4c(c(-c5cn(C)nc5OC)[nH]c4ncc31)-c1ccc(cc1)CNCC[C@]1(NC(=O)C3CC3)CC[C@@H]2CC1 [Example 7, N-((3^1s,3^4s)-2^7-(3-Methoxy-1-methyl-1H-pyrazol-4-yl)-2^3-(methyl-d)-2^2-oxo-2^1,2^2,2^3,2^6-tetrahydro-6-aza-2(8,1)-imidazo[4,5-d]pyrrolo[2,3-b]pyridina-1(1,4)-benzena-3(1,4)-cyclohexanacycloheptaphane-3^4-yl)cyclopropanecarboxamide] | > 1000 | ≤ 10 | 10 to 100 | > 1000 |
| [2H]C([2H])([2H])n1c(=O)n2c3c4c(c(-c5cnn(CCOC)c5)[nH]c4ncc31)-c1ccc(cc1)OCC/C=C/C[C@]1(NC(=O)[C@H]3C[C@H]3F)CC[C@@H]2CC1 [Example 8, (1R,2R)-2-Fluoro-N-((3^1S,3^4s,E)-2^7-(1-(2-methoxyethyl)-1H-pyrazol-4-yl)-2^3-(methyl-d3)-2^2-oxo-2^1,2^2,2^3,2^6-tetrahydro-9-oxa-2(8,1)-imidazo[4,5-d]pyrrolo[2,3-b]pyridina-1(1,4)-benzena-3(1,4)-cyclohexanacyclononaphan-5-en-3^4-yl)cyclopropane-1-carboxamide] | 500 to 1000 | ≤ 10 | ≤ 10 | 500 to 1000 |
| [2H]C([2H])([2H])n1c(=O)n2c3c4c(c(-c5cn(CC)nc5F)[nH]c4ncc31)-c1ccc(cc1)OCCC(O)CC[C@]1(NC(=O)[C@H]3C[C@H]3F)CC[C@@H]2CC1 (stereo partly drawn) [Example 9, (1R,2R)—N-((3^1S,3^4s)-2^7-(1-Ethyl-3-fluoro-1H-pyrazol-4-yl)-6-hydroxy-2^3-(methyl-d)-2^2-oxo-2^1,2^2,2^3,2^6-tetrahydro-9-oxa-2(8,1)-imidazo[4,5-d]pyrrolo[2,3-b]pyridina-1(1,4)-benzena-3(1,4)-cyclohexanacyclononaphane-3^4-yl)-2-fluorocyclopropane-1-carboxamide] | > 1000 | ≤ 10 | ≤ 10 | 500 to 1000 |
| [2H]C([2H])([2H])n1c(=O)n2c3c4c(c(-c5cnn(C)c5)[nH]c4ncc31)-c1ccc(cc1)OCC/C=C/C[C@]1(NC(=O)[C@H]3C[C@H]3F)CC[C@@H]2CC1 [Example 10, (1R,2R)-2-fluoro-N-((3^1S,3^4s,E)-2^3-(methyl-d3)-2^7-(1-methyl-1H-pyrazol-4-yl)-2^2-oxo-2^1,2^2,2^3,2^6-tetrahydro-9-oxa-2(8,1)-imidazo[4,5-d]pyrrolo[2,3-b]pyridina-1(1,4)-benzena-3(1,4)-cyclohexanacyclononaphan-5-en-3^4-yl)cyclopropane-1-carboxamide] | 500 to 1000 | ≤ 10 | ≤ 10 | 500 to 1000 |
